Source: publication PMC5451472, “Novel Locally Active Estrogens Accelerate Cutaneous Wound Healing-Part 2” (Scientific Reports, 2017)

Experiments:
ERs = target: T1, ERs (Homo sapiens, UniProt P03372); assay: ER transactivation assay in ERE-Luc B17 cells (luciferase reporter); type: cell-based
T1 construct: endogenous in cells; host or cells: MCF-7, clone ERE-Luc B17 (only the luciferase reporter is transfected)
T1 sequence (P03372 1-595): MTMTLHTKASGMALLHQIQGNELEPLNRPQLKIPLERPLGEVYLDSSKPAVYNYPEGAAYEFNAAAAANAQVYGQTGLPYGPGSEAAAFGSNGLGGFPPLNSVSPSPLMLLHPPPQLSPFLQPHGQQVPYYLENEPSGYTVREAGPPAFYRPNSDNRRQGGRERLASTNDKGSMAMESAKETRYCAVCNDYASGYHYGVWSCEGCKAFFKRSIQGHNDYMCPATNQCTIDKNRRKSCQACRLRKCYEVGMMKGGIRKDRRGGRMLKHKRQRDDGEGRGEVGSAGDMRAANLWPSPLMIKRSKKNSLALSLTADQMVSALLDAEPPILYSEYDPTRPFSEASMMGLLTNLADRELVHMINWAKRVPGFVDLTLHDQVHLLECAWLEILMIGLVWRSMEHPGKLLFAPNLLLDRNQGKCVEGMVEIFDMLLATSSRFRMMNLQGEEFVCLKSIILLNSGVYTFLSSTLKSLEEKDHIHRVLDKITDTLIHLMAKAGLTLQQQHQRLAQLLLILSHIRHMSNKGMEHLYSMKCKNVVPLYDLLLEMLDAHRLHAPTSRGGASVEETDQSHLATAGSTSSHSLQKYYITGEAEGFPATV
Description: The ability of the novel compounds to transcriptionally activate ERs was tested in ERE-Luc B 17 cells, a clone of the breast cancer cell line MCF-7 stably transfected with a reporter constituted by the luciferase gene driven by an estrogen-regulated synthetic promoter previously generated and tested in our laboratories.
Cells were split twice a week by seeding 2 × 10^6 cells in 100 mm diameter Petri (Corning) dishes.
After 24 h cells were rinsed once with PBS before preparing the protein extract for the determination of luciferase content. Each experiment was carried out in duplicate.
Luciferase enzymatic activity was measured in cells or selected tissue homogenates by a luminometer (Glomax™96 microplate luminometer; Promega) using Promega standard luciferin (Beetle Luciferin Potassium Salt) and expressed as Relative Light Units over 10 sec/μg protein (RLU/μg protein). Proteins concentrations were measured by Bradford.
Analysis of transactivation data and calculation of EC50 values were performed by means of sigmoidal dose-response (variable slope) using PRISM5 software (GraphPad Software Inc.).

[1] = tested on: ER transcriptional activity; assay: In vivo BLI time course in wounded ovariectomized ERE-Luc mice, compounds s.c. around the wound; parameters: species or system mouse
Description: To study the estrogenic and healing properties of the two compounds, we generated a wound in the ERE-Luc mouse model and tested the activity of the two compounds administered s.c. in the area surrounding the wound as described in the methodology section.
Each group was composed of 4 ERE-Luc females’ mice ovariectomized 2 weeks’ prior the experiment to avoid any interference due to endogenous estrogens. Photon emission was measured in the living animals three times: at 0, 3 and 6 h after s.c. injection.
ERE-Luc and MITO-Luc mice were ovariectomized at two months of age; the experiment was done 2 weeks after surgery to allow the animals to recover and to decrease the levels of circulating estrogens. The animals were fed ad libitum with a special estrogen free diet (AIN 93 M, Mucedola) (Ciana et al. Endocrinology 2005) and housed in individually ventilated plastic cages within a temperature range of 22–25 °C, relative humidity of 50% ± 10% and under an automatic cycle of 12 h light/dark (lights on at 07:00 am). All animal experimentation was carried out in accordance with the ARRIVE and European Guidelines for Animal Care. All animal experiments were approved by the Italian Ministry of Research and University and controlled by a Departmental panel of experts. For the correct dosage of the compounds, the body weight of the animals (on empty stomach, fasted for at least 12–14 hours) was determined immediately before the treatment.
(§1) Ovariectomy was carried out as previously described. Wound healing was done after shaving by VEET depilatory cream a day before the treatment. The 1 cm full-thickness incisional wound was made through the skin and panniculus carnosus muscle of ovariectomized MITO-luc using a surgical scalpel (blade n°10, carbon steel, Swann-Morton Ltd). Round full-thickness wounds were done by cutting out a section of full-thickness skin (around 9 mm in diameter) using fine scissors on the dorsal skin of the isoflurane-anesthetized animal. For in vivo treatment the compounds were administered onto the subcutaneous area surrounding the wound by multiple subcutaneous injection, immediately after the generation of the wound.
For the semi-quantitative analysis of in vivo photon emission, animals were injected i.p. with 80 mg/kg of luciferin (Beetle Luciferin Potassium Salt; Promega, Madison, WI, USA) 15 min prior the imaging session. For the imaging, mice were anaesthetized using isofluorane (Isofluorane-Vet; Merial, Lyon, France) and kept under anesthesia during the 5 minutes of the session carried out with a CCD camera: both ventral and dorsal acquisition (Xenogen IVIS Lumina System; Caliper, PerkinElmer company). Photon emission in selected body areas was measured using the Living Image Software (Caliper, PerkinElmer company). The analysis was done in ventral view: whole body, thymus, hepatic area, abdomen, limbs, vagina and in dorsal view in wound area and expressed as photon/second/cm2/steradiant (p/s/cm2/sr).

ERE-Luc mice = assay: Uterus weight of ERE-Luc mice; type: in vivo, mouse; conditions: 200 µg/kg s.c., 6 h after treatment, n = 4
Source text: The final study aiming at investigating the systemic effect of the NCE was done by measuring the uterus weight of all treated animal as the golden standard for the quantitative measure of estrogenic compounds.

MITO-Luc mice = assay: Granulation tissue histoscore of round full-thickness wound at day 10; type: in vivo, mouse; conditions: 200 µg/kg s.c., day 10, round wound, scale 1-3 (vehicle 0.3)
Description: The measure of photon emission from the wound area was done for several days after the wounding. 3 days after treatment the bioluminescent signal is highest (Fig. 10 Panel a).
as §1
At the time of euthanasia, the wounds with surrounding healthy tissue were excised, distended on a strip of hard paper and fixed in 10% buffered formalin (pH = 6). […] For histopathological examination 4 µm sections were routinely stained with Hematoxylin-Eosin (HE) and evaluated under a light microscope. The degree of re-epithelialization, the type and amount of granulation tissue and inflammation, which are the main features of wound healing, were scored separately. […]

CCCCOC(=O)CCC#C[C@]1(O)CC[C@H]2[C@@H]3CCc4cc(O)ccc4[C@H]3CC[C@@]21C [1e, 3,17β-Hydroxy-17α-(4′carbobutoxy-1′-butyn-1′-yl)estra-1,3,5-(10)-triene]
EC50 (ERs; ERE-Luc B17 cells (MCF-7 clone), 24 h, luciferase activity, sigmoidal dose-response, read-out: EC50 (transactivation potency)): 1.3 nM | fold induction at 10 µM (ERs; ERE-Luc B17 cells, 10^-5 M of compound respect to vehicle): 2.6 | photon emission in body areas (whole body, thymus, hepatic area, abdomen, limbs, vagina) ([1]; 200 µg/kg s.c. around wound, 3 or 6 h, ovx mice): did not observe increased photon emission in any of the body areas | increase of photon emission in the wound area with respect to time 0 ([1]; 200 µg/kg s.c., 6 hours, trend): 30% | weight of the uterus versus controls (ERE-Luc mice): indistinguishable from controls | Score of granulation tissue (fibrosis), histoscore mean (MITO-Luc mice): 1.5
